From patent US7034028B2, “Treatment of inflammatory disorders” (Arakis Ltd., priority 2000, dated 2006)
Read-outs that look alike come from different tables or passages of the source.

Assays:
bovine nasal cartilage = assay: Ex vivo IL-2-stimulated bovine nasal cartilage destruction model; format: cell-based; set-up: Inhibition of IL-2-stimulated bovine nasal cartilage destruction: unit not given here; conditions: for inhibition at 1 µM / inhibition at 10 µM / inhibition at 100 µM: Bos taurus, read-out: Inhibition of IL-2-stimulated bovine nasal cartilage destruction
IL-2 = assay: Cytokine inhibition profile: IL-2; format: cell-based; conditions: read-out: Inhibition Profile (IC50) IL-2
IL-6 = assay: Cytokine inhibition profile: IL-6; format: cell-based; conditions: read-out: Inhibition Profile (IC50) IL-6
T-cell proliferation = assay: T-cell (lymphocyte) proliferation inhibition; format: cell-based, human
TNF = assay: Cytokine inhibition profile: TNF; format: cell-based; conditions: read-out: Inhibition Profile (IC50) TNF
IL-1 = assay: Cytokine inhibition profile: IL-1; format: cell-based; conditions: read-out: Inhibition Profile (IC50) IL-1
Interleukin-8 (IL-8) = assay: Cytokine inhibition profile: IL-8; format: cell-based
IFN gamma = assay: Cytokine inhibition profile: IFN gamma; format: cell-based; conditions: read-out: Inhibition Profile (IC50) IFN gamma
[1] = read-out: Inhibition Profile (IC50) T-cell proliferation

Row | SMILES | Inhibition of IL-2-stimulated bovine nasal cartilage destruction (bovine nasal cartilage; 10 μM) | IC50 (IL-2) [µM] | IC50 (IL-6) [µM] | IC50 (T-cell proliferation; [1]) [µM] | IC50 (TNF) [µM] | IC50 (IL-1) [µM] | IC50 (Interleukin-8 (IL-8)) [µM] | IC50 (IFN gamma) [µM] | Inhibition of IL-2-stimulated bovine nasal cartilage destruction (bovine nasal cartilage; 1 μM) | Inhibition of IL-2-stimulated bovine nasal cartilage destruction (bovine nasal cartilage; 100 μM) | Inhibition Profile (IC50) IL-8 (Interleukin-8 (IL-8)) | also measured
1 | OC(c1cc(C(F)(F)F)nc2c(C(F)(F)F)cccc12)C1CCCCN1 (racemic) [(+/−) Mefloquine, mefloquine] | 20 | – | – | – | – | – | – | – | – | – | – | –
2 | OC(c1cc(C(F)(F)F)nc2c(C(F)(F)F)cccc12)C1CCCCN1 (single isomer, unassigned; (-)) [(−)Mefloquine] | 45 | 17 | 43 | 10 | 18 | 79 | 63 | 18 | 37 | 82 | – | –
3 | O[C@H](c1cc(C(F)(F)F)nc2c(C(F)(F)F)cccc12)[C@@H]1CCCCN1 [(+)Mefloquine, (+)-Erythro-mefloquine] | 44 | 17 | 53 | 11 | 24 | 68 | 41 | 17 | 32 | 71 | – | Suppression of human lymphocyte proliferation, in words (T-cell proliferation): suppresses
4 | CCN(CC)CCCC(C)Nc1ccnc2cc(Cl)ccc12 (stereo not shown) [Chloroquine, chloroquine] | – | 66 | 81 | – | 21 | 6.3 | – | 63 | – | – | Inactive | IC50 (T-cell proliferation; Homo sapiens, T-cell, read-out: Inhibition Profile (IC50) T-cell proliferation): 13 µM; inhibition at 1 µM (bovine nasal cartilage): 3%; inhibition at 10 µM (bovine nasal cartilage): 6%; inhibition at 100 µM (bovine nasal cartilage): 35%
5 | CCN(CCO)CCCC(C)Nc1ccnc2cc(Cl)ccc12 (stereo not shown) [Hydroxychloroquine, hydroxychloroquine] | – | 94 | 90 | – | 32.2 | 21 | – | 94 | – | – | Inactive | IC50 (T-cell proliferation; Homo sapiens, T-cell; read-out: Inhibition Profile (IC50) T-cell proliferation): 16 µM; Activity against Interleukin-8 (IL-8), in words (Interleukin-8 (IL-8)): inactive; inhibition at 1 µM (bovine nasal cartilage; 1 μM): 4%; inhibition at 10 µM (bovine nasal cartilage; 10 μM): 3%; inhibition at 100 µM (bovine nasal cartilage; 100 μM): 36%
